Measured values as given in BindingDB's records for doi:10.1021/cc0600021 (Darmstadt Technical University, 2006).

target: Beta-secretase 1 (Homo sapiens, UniProt P56817); assay: Fluorescence Resonance Energy Transfer (FRET) Assay; settings: 20 °C
Experimental: The FRET assay was performed at 20 C on a FLUOstar (BMG Lab Technologies, D-77656 Offenburg) using 96-well microtiter plates (Dynex Microfluor 2, Chantilly, VA).

Chain of Beta-secretase 1 (P56817 whole entry): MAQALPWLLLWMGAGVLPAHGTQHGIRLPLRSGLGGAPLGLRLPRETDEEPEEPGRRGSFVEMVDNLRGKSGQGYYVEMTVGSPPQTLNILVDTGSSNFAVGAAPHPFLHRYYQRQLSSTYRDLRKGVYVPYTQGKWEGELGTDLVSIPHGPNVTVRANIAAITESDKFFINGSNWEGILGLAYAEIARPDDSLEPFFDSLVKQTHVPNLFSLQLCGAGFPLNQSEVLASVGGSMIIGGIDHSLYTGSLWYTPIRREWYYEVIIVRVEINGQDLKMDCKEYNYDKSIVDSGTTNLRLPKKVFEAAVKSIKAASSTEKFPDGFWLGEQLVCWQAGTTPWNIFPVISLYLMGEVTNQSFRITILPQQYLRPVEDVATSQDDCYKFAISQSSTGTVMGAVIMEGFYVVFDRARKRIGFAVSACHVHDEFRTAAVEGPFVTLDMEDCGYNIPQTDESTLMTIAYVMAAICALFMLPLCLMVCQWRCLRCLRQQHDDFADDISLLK

SMILES	IC50 [µM]
CCC(C)C1NC(=O)C(SCc2cccc(C(F)(F)F)c2)C1=O (configuration not stated) [Tetramic acid, 38]	60
CCC(C)C1NC(=O)C(SCc2ccco2)C1=O (configuration not stated) [Tetramic acid, 43]	200
CC(C)CC1NC(=O)C(SCC(=O)NCc2ccc3c(c2)OCO3)C1=O (configuration not stated) [Tetramic acid, 30]	200
O=C1CN(Cc2cccc(C(F)(F)F)c2)C(=O)C1Sc1ccccc1 (configuration not stated) [N-Substituted tetramic acid, 89]	> 200
O=C1OC(c2ccccc2)C(=O)C1Sc1ccccc1 (configuration not stated) [Tetramic acid, 72]	105
CC(C)CC1NC(=O)C(SCc2cccc(C(F)(F)F)c2)C1=O (configuration not stated) [Tetramic acid, 25]	194
CCC(C)C1NC(=O)C(SCC(=O)NCc2ccc3c(c2)OCO3)C1=O (configuration not stated) [Tetramic acid, 44]	> 200
O=C1OC(c2ccccc2)C(=O)C1SCCc1ccccc1 (configuration not stated) [Tetramic acid, 74]	> 200
O=C1OC(CCc2ccccc2)C(=O)C1SCc1cccc(C(F)(F)F)c1 (configuration not stated) [Tetramic acid, 77]	> 200
COc1ccc(CN2CC(=O)C(Sc3ccccc3)C2=O)cc1 (configuration not stated) [N-Substituted tetramic acid, 91]	> 200
O=C1NC(Cc2ccccc2)C(=O)C1SCc1ccco1 (configuration not stated) [Tetramic acid, 56]	145
O=C1CN(Cc2ccccc2)C(=O)C1SCc1cccc(C(F)(F)F)c1 (configuration not stated) [N-Substituted tetramic acid, 92]	212
